This is an account of results in patent US20260364089A1, “PYRIDOPYRIMIDINE KRAS INHIBITORS” (Treeline Biosciences, Inc., priority 2022, published 2026).

Holding throughout (format): biochemical
One assay addresses T1, KRas G12R (Homo sapiens, UniProt P01116, G12R).
T1 construct: KRas G12R (1-169) loaded with GDP nucleotide; biotin (biotinylated)
Put plainly: SOS1-Catalyzed Nucleotide Exchange Assay, KRas G12R. The following applies: 10 nM KRas G12R (1-169, GDP-loaded), 200 nM SOS1. As to the method:
(§1) KRas G12R and WT: Compounds were pre-dispensed using acoustic transfer technology into a black, low volume 384-well assay plate. A 10-point dose response of each compound was performed with a 30 μM top dose. Biotinylated KRas WT(1-169) or KRas G12R (1-169) loaded with GDP nucleotide was mixed with Streptavidin-Tb cryptate (Cisbio) in assay buffer (20 mM HEPES pH 7.4, 150 mM NaCl, 2 mM MgCl2, and 0.005% CA680) to produce a 1.5× solution. 10 μL of the 1.5× KRas-cryptate solution was added to wells of a black, low-volume 384-well assay plate. The KRas/cryptate-compound mixture was incubated for 1 hour at room temperature. A 3× solution of SOS1 (564-1049) and EDA-GTP-DY-647P1 (Jena Bioscience) was prepared in assay buffer. 5 μL of the SOS1-labeled GTP solution was added to the wells to initiate the nucleotide exchange reaction. The final concentration of KRas G12R and SOS1 were 10 nM and 200 nM, respectively. The final concentration of KRas WT and SOS1 were 20 nM and 10 nM, respectively. The plate was allowed to incubate for 1 hr, then time resolved fluorescence was read on a PHERAstar plate reader equipped with a filter module with excitation=337 nm and emission 1=620 nm, emission 2=665 nm. The TR-FRET signal was calculated as the ratio of fluorescence intensity [emission 665 nm]/[emission 620 nm]. IC50 values were calculated using a four-parameter, variable response sigmoidal dose response curve fit in PerkinElmer Signals VitroVivo.

Another assay concerns the target T2, KRas WT (Homo sapiens, UniProt P01116).
T2 construct: Biotinylated KRas WT(1-169); biotin (biotinylated)
As to the kind of experiment: SOS1-Catalyzed Nucleotide Exchange Assay, KRas WT. The note with it: 20 nM KRas WT (1-169, GDP-loaded), 10 nM SOS1. The method, then: as §1

Another assay has as its target T3, KRas G12V (Homo sapiens, UniProt P01116, G12V).
T3 construct: Biotinylated KRas G12V (aa 1-169) loaded with GDP nucleotide; biotin (biotinylated)
Put plainly: SOS1-Catalyzed Nucleotide Exchange Assay, KRas G12V (Method 1). The note with it: 5 nM KRas G12V (aa 1-169, GDP-loaded), 50 nM SOS1. The method, then: KRas G12V [Method 1]: Biotinylated KRas G12V (aa 1-169) loaded with GDP nucleotide and Streptavidin-Europium (SA-EU, Columbia Biosciences) were preincubated in assay buffer (20 mM HEPES pH 7.4, 150 mM NaCl, 5 mM MgCl2, 1 mM DTT, 0.01% Brij-35, 0.3 mg/mL BSA) on ice for 30 min. Separately SOS1 (aa 546-1049) and EDA-GTP-DY647P1 (Jena Bioscience) were preincubated in assay buffer on ice for 30 min. After pre-incubation, 5 μL buffer and 5 μL of KRas G12V-SA-Eu were added to each well of a white, low-volume, non-binding 384-well plate. Compounds were then added to respective wells with a Tecan D300e liquid dispenser. A 10-point concentration response curve for each compound was prepared with appropriate top concentration (1 μM, 10 μM, or 300 μM) and incubated for 30 min. 5 μL of SOS1-EDA-GTP-D467P1 was added to start the nucleotide exchange reaction. Final concentration in the assay were 5 nM KRas G12V, 50 nM SOS1 (aa 564-1049). The reaction was allowed to proceed for 60-90 minutes after which the plate was read on a PHERAstar FSX plate reader (exc: 337 nm, em 1: 665 nm, em 2: 620 nm). After normalization of the raw data (ratio of Signal665nm/Signal620nm) the data was fit to a four-parameter logistic curve in GraphPad Prism (v9.4.1).

T3 sequence (P01116 1-169 G12V): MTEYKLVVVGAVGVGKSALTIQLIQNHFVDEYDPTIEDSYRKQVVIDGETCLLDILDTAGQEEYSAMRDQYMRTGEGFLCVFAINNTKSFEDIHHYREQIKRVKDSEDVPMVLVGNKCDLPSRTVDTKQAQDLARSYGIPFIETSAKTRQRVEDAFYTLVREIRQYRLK
T2 sequence (P01116 1-169): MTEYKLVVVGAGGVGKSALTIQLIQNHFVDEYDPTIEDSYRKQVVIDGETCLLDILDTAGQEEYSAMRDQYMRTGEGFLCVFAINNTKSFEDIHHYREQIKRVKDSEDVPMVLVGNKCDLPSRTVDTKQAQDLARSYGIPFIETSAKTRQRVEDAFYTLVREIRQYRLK
T1 sequence (P01116 1-169 G12R): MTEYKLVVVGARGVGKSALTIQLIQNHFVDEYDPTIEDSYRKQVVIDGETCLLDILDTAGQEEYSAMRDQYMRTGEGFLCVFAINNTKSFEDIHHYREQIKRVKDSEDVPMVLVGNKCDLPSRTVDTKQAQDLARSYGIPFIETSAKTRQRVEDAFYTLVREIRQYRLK

For orientation: IC50 means the midpoint of a concentration-inhibition curve. Read a high IC50 as lower potency. For `Oc1cc(Cl)c2c(c1)-c1ncc3c(nc(OC[C@@]45CCCN4C[C@H](F)C5)nc3c1F)N1CCCC(O)(CCCCCC2)C1` (stereo partly drawn) [Compound 151a, 3^3-chloro-2^8-fluoro-2^2-(((2R,7aS)-2-fluorotetrahydro-1H-pyrrolizin-7a(5H)-yl)methoxy)-2(4,7)-pyrido[4,3-d]pyrimidina-1(1,3)-piperidina-3(1,2)-benzenacyclononaphane-1^3,3^5-diol], the IC50 against KRas G12R, on KRas WT and against KRas G12V was no more than 100 nM in each case.

Consider `O=C1CCc2c(Cl)cc(O)cc2-c2ncc3c(nc(OC[C@@]45CCCN4C[C@H](F)C5)nc3c2F)N2CCCC(CCN1)C2` (stereo partly drawn) [Compound 113a, 3^3-chloro-2^8-fluoro-2^2-(((2R,7aS)-2-fluorotetrahydro-1H-pyrrolizin-7a(5H)-yl)methoxy)-3^5-hydroxy-7-aza-2(4,7)-pyrido[4,3-d]pyrimidina-1(1,3)-piperidina-3(1,2)-benzenacyclononaphan-6-one], for which the IC50 against KRas G12R lay within 10000 to 30000 nM; against KRas WT, 1000 to 10000 nM; on KRas G12V, 1000 to 10000 nM.

`Oc1cc2c3c(c(F)ccc3c1)-c1cn(nn1)CCCCC1CCCN(C1)c1nc(OC[C@@]34CCCN3C[C@H](F)C4)nc3c(F)c-2ncc13` (stereo partly drawn) [Compound 125a, (Z)-2^8,3^7-difluoro-2^2-(((2R,7aS)-2-fluorotetrahydro-1H-pyrrolizin-7a(5H)-yl)methoxy)-4^1H-2(4,7)-pyrido[4,3-d]pyrimidina-1(1,3)-piperidina-4(4,1)-triazola-3(1,8)-naphthalenacyclooctaphan-3^3-ol]: the IC50 at KRas G12R was 10000 to 30000 nM; against KRas WT, 1000 to 10000 nM; against KRas G12V, 10000 to 30000 nM.

With `O=C1CCCCc2c(Cl)cc(O)cc2-c2ncc3c(nc(OC[C@@]45CCCN4C[C@H](F)C5)nc3c2F)N2CCCC(O)(CCN1)C2` (stereo partly drawn) [Compound 140a, 3^3-chloro-2^8-fluoro-2^2-(((2R,7aS)-2-fluorotetrahydro-1H-pyrrolizin-7a(5H)-yl)methoxy)-1^3,3^5-dihydroxy-9-aza-2(4,7)-pyrido[4,3-d]pyrimidina-1(1,3)-piperidina-3(1,2)-benzenacycloundecaphan-8-one], the IC50 on KRas G12V was no more than 100 nM.

As to `O=C1CCCCc2c(Cl)cc(O)cc2-c2ncc3c(nc(OC[C@@]45CCCN4C[C@H](F)C5)nc3c2F)N2CCCC(CCN1)C2` (stereo partly drawn) [Compound 115a, 3^3-chloro-2^8-fluoro-2^2-(((2R,7aS)-2-fluorotetrahydro-1H-pyrrolizin-7a(5H)-yl)methoxy)-3^5-hydroxy-9-aza-2(4,7)-pyrido[4,3-d]pyrimidina-1(1,3)-piperidina-3(1,2)-benzenacycloundecaphan-8-one], the concentration for half-maximal inhibition (IC50) against KRas G12R, against KRas WT and against KRas G12V was no more than 100 nM each time.

Take `O=C1CCCCc2c(Cl)cc(O)cc2-c2ncc3c(nc(OC[C@@]45CCCN4C[C@H](F)C5)nc3c2F)N2CCC[C@H](CCN1)C2` (single isomer, unassigned) [Compound 115b]: the IC50 against KRas G12R and against KRas G12V was no more than 100 nM in each case. The “KRas WT IC50 (nM)” value on KRas WT is listed as “++ ++”.

As to `Oc1cc(Cl)c2c(c1)-c1ncc3c(nc(OC[C@@]45CCCN4C[C@H](F)C5)nc3c1F)N1CCCC(Cc3noc(n3)CCCCCC2)C1` (stereo partly drawn) [Compound 153a, (Z)-1^3-chloro-2^8-fluoro-2^2-(((2R,7aS)-2-fluorotetrahydro-1H-pyrrolizin-7a(5H)-yl)methoxy)-5(3,5)-oxadiazola-2(7,4)-pyrido[4,3-d]pyrimidina-3(1,3)-piperidina-1(1,2)-benzenacycloundecaphan-1^5-ol], the IC50 against KRas G12R, against KRas WT and against KRas G12V was 100 to 1000 nM throughout.

For `Oc1ccc2c(c1)-c1ncc3c(nc(OC[C@@]45CCCN4C[C@H](F)C5)nc3c1F)N1CCCC(CCCCCCC2)C1` (stereo partly drawn) [Compound 143a, 2^8-fluoro-2^2-(((2R,7aS)-2-fluorotetrahydro-1H-pyrrolizin-7a(5H)-yl)methoxy)-2(4,7)-pyrido[4,3-d]pyrimidina-1(1,3)-piperidina-3(1,2)-benzenacyclodecaphan-3^5-ol], the IC50 at KRas G12R is 100 to 1000 nM; at KRas WT, no more than 100 nM; against KRas G12V, 100 to 1000 nM.

As for `O=C1CCCCc2c(Cl)cc(O)cc2-c2ncc3c(nc(OC[C@@]45CCCN4C[C@H](F)C5)nc3c2F)N2CCC[C@@H](CCN1)C2` (single isomer, unassigned) [Compound 115c], the IC50 on KRas G12R, on KRas WT and against KRas G12V was no more than 100 nM throughout.

At KRas G12V, `O=C1CCCCc2c(Cl)cc(O)cc2-c2ncc3c(nc(OC[C@@]45CCCN4C[C@H](F)C5)nc3c2F)N2CCCC(CN1)C2` (stereo partly drawn) [Compound 141a, 3^3-chloro-2^8-fluoro-2^2-(((2R,7aS)-2-fluorotetrahydro-1H-pyrrolizin-7a(5H)-yl)methoxy)-3^5-hydroxy-9-aza-2(4,7)-pyrido[4,3-d]pyrimidina-1(1,3)-piperidina-3(1,2)-benzenacyclodecaphan-8-one] registered an IC50 of no more than 100 nM.

Turning to `Oc1cc(Cl)c2c(c1)-c1ncc3c(nc(OC[C@@]45CCCN4C[C@H](F)C5)nc3c1F)N1CCCC(O)(CCCCCCC2)C1` (stereo partly drawn) [Compound 152a, 3^3-chloro-2^8-fluoro-2^2-(((2R,7aS)-2-fluorotetrahydro-1H-pyrrolizin-7a(5H)-yl)methoxy)-2(4,7)-pyrido[4,3-d]pyrimidina-1(1,3)-piperidina-3(1,2)-benzenacyclodecaphane-1^3,3^5-diol], the concentration for half-maximal inhibition (IC50) at KRas G12R, against KRas WT and at KRas G12V was no more than 100 nM throughout.
